In one data set the test system is HCV (J399EM). The data set is described as follows: HCV copy number in serum/peripheral blood and liver tissue by qPCR in HCV-infected C/O-Tg mice. Format: in vivo. The settings on record: two weeks of treatment, vs control (FIG. 7B, 8C). The method, then: This mouse model of HCV infection was first reproduced and confirmed. HCV (J399EM, 1 mL, TCID50=2×10^7) was used for tail vein infusion in C/O-Tg mice and wild-type littermate control mice. […] The above results are consistent with the observation in patients infected with HCV (Fahey S, Dempsey E, Long A. The role of chemokines in acute and chronic hepatitis C infection. Cellular and Molecular Immunology 11, 25 (2014)).
Since CD8+ T cells are generally thought to play an important role in viral infection and clearance, the expression profile of CD8+T immune checkpoint molecules during HCV infection was first tested. […] Based on this, it was tested whether targeting T cell immune checkpoint molecules can inhibit the chronic infection process.
In order to further investigate the therapeutic effect of NKG2A blockade on chronic HCV infection, mice were administered with NKG2A blocking antibodies two weeks after HCV infection. Up-regulation of NKG2A expression has been observed at this stage (FIG. 3C) and administration was lasted for two weeks (FIG. 6A).
Background: Real-time PCR tracks product formation cycle by cycle.

The next data set has as its system liver NK cells. Briefly: in vitro NK function assay: liver NK cells of treated mice co-cultured with target cells Yac-1, flow cytometry (CD107a, granzyme B, IFN-γ). Format: in vivo, C/O-Tg mice. The settings on record: two weeks of treatment with Qa-1 siRNA, vs control siRNA (FIG. 8D).
The test system of a further data set is Qa-1. Briefly: Qa-1 mRNA expression of different cell components in liver tissue after siRNA treatment. Format: in vivo, C/O-Tg mice. The following applies: tail vein injection, two weeks of treatment, vs control siRNA (FIG. 8B). The source says: On the other hand, it was investigated whether suppression of the expression of immune checkpoint molecules can promote the elimination of HCV.

Regarding “cholesterol-conjugated siRNA against Qa-1: cholesterol-conjugated siRNA against Qa-1, sequence GAAGAGGAGGAGACACAUA, synthesized by GenePharma (cholesterol-conjugated, position not given here)”, in the data set on HCV (J399EM), the “HCV replication (copy numbers of virus in serum and liver tissues)” value is reported as “inhibited HCV replication”. For the same substance, the “depletion process of NK cells (CD107a and IFN-γ)” value in the data set on liver NK cells is “reversed”. The “Qa-1 expression (mRNA) in liver cell components” value in the data set on Qa-1 is on record as “selectively down-regulated Qa-1 in hepatocytes”.

The record behind these values is patent US20220143060A1, “METHOD FOR TREATING INFECTIOUS DISEASES BY TARGETING NK CELL IMMUNE CHECKPOINT” (priority 2019, published 2022).
